Laboratory results reported in patent publication US8575116B1, “Polyacetylenic compounds for protecting against pancreatic islet atrophy” (Academia Sinica, priority 2010, dated 2013).
Entries after “also recorded” stand apart in the source; their conditions may differ.

Legend:
db/db mice = assay: Long-term treatment of diabetic db/db mice: blood glucose and blood insulin; format: in vivo, mouse
Experimental: FIGS. 1A-F show the anti-diabetic effects of cytopiloyne in db/db mice during long-term treatment. (A) Chemical structure of cytopiloyne (2-β-D-glucopyranosyloxy-1-hydroxytrideca-5,7,9,11-tetrayne). (B) Four groups of 6-to-8-week-old diabetic db/db mice were tube-fed with vehicle, cytopiloyne (CP, 0.5 and 2.5 mgkg^−1 day^−1) or glimepiride (GLM, 2.5 mgkg^−1 day^−1) from 0 to 42 days post-treatment. Blood glucose (BG) levels in these mice were measured. (C) Blood insulin levels from the mice of FIG. 1B. (D) IPGTT was performed in the db/db mice of FIG. 1B on day 0, 28 and 42, and blood glucose levels were monitored for 3.5 h. […] Results from 3 independent experiments are expressed as mean±SEM, and P<0.05 was considered to be statistically significant (*). […]
After 0.5 h, the levels of postprandial blood sugar and insulin from the mice were monitored for additional 4 h. For continued administration, diabetic db/db males were grouped and tube-fed with vehicle, cytopiloyne (0.5 or 2.5 mgkg^−1 day^−1) or glimepiride (2.5 mg kg^−1 day^−1) for the indicated time, while levels of blood sugar, insulin, and glycosylated HbA1c, and glucose tolerance in these mice were determined. […] Unless indicated otherwise, the mice were fasted for 16 h, then Postprandial blood glucose and insulin in these mice were measured. […]

[1] = test system: rat pancreatic islet cells; assay: Intracellular staining for insulin and FACS in rat pancreatic islet cells; format: cell-based; conditions: 28 μM, brefeldin A, 24 h
Experimental: FIGS. 4A-C show an increase in insulin mRNA and protein content by cytopiloyne in pancreatic islet cells. (A) HIT-T15 β-cells transfected with phINS-Luc and pRL-TK plasmids were incubated with vehicle (NS), glimepiride (GLM, 10 μM), high glucose (HG, 16.7 mM) or cytopiloyne at 7, 14 or 28 μM. Ten μg of cell lysates from these cells underwent to dual luciferase assays. […] (C) Rat pancreatic islet cells were treated with vehicle, glucose (3.3 mM (LG) or 16.7 mM (HG)) or cytopiloyne (CP, 7, 14 and 28 μM) in the presence of brefeldin A for 24 h. After anti-insulin antibody staining, these cells underwent FACS analysis. The percentage of insulin-positive β-cells is shown. All the results from 3 independent experiments are expressed as mean±SEM, and P<0.05 was considered to be statistically significant (*).
The islets were disrupted into individual cells and underwent intracellular staining with anti-insulin antibody and FACS analysis.

RIN-m5F cells = assay: Intracellular calcium (Fura 2-AM) in RIN-m5F cells; format: cell-based, rat; conditions: cytopiloyne 7, 14 and 28 μM, glucose 16.7 mM
Experimental: FIGS. 5A-D show the effects of cytopiloyne on calcium mobilization, DAG generation and PKCa activation. (A) After Fura 2-AM loading, RIN-m5F cells were stimulated with 16.7 mM glucose (HG) and cytopiloyne at 7, 14 and 28 μM. Level of intracellular calcium, as shown by the 340/380 nm ratio, was detected using a fluorescence spectrophotometer. (B) RIN-m5F cells were pulsed with ^3H-myristic acid (5 Cim1^−1) for 16 hours. After washing, the cells were stimulated with glucose, cytopiloyne, PMA and glimepiride. Total lipids were separated on a silica thin layer plate. DAG and cholesterol were visualized with iodine vapor and identified by their standards. (C) RIN-m5F cells were incubated with vehicle (Mock), cytopiloyne (CP, 3, 7 and 14 μM), PMA (1 μM) and 16.7 mM (HG). Membrane or cytosolic proteins were subjected to Western blot with anti-PKCα and anti-Actin antibodies. (D) RIN-m5F cells were incubated with vehicle (Mock), cytopiloyne (CP 7 μM) and PMA (1 μM). […]
RIN-m5F cells were pre-loaded with Fura 2-AM (5 μM) in modified Krebs-Henseleit buffer for 30 min at 25° C. […] Intracellular calcium of the cells was measured using a fluorescence spectrophotometer (CAF 110, Jasco, Tokyo, Japan) at excitation wavelengths of 340 and 380 nm and an emission wavelength of 500 nm. The ratio of fluorescence intensity at 340 nm to that at 380 nm represents the level of intracellular calcium.

HIT-T15 cells = assay: Insulin secretion of β-cell line with PMA, GF109203X and cytopiloyne (ELISA); format: cell-based, rat; conditions: FIG. 6A; glucose 16.7 mM

SMILES: CC#CC#CC#CC#CCCC(CO)O[C@@H]1O[C@H](CO)[C@@H](O)[C@H](O)[C@H]1O (stereo partly drawn) [cytopiloyne, 2-β-D-glucopyranosyloxy-1-hydroxytrideca-5,7,9,11-tetrayne]
- blood insulin levels, long-term treatment (db/db mice; 0.5 and 2.5 mgkg^−1 day^−1, db/db mice (FIG. 1C)): increased blood insulin levels to a greater extent than glimepiride
- blood sugar-lowering / anti-diabetic effect compared with glimepiride 2.5 mgkg^−1 (db/db mice; 2.5 mgkg^−1 day^−1, long-term, fed db/db mice (FIG. 1B)): slightly therapeutically better than glimepiride at 2.5 mgkg^−1; also recorded: modestly better anti-diabetic effects at the same dose
- intracellular insulin levels compared to the vehicle treatment [1]: fivefold
- intracellular calcium (340/380 nm ratio) (RIN-m5F cells): increased intracellular calcium in a dose-dependent manner
- insulin secretion in β-cell line (HIT-T15 cells): stimulated insulin secretion
